Results: patent US20050197350A1, “Novel quinoline, tetrahydroquinazoline, and pyrimidine derivatives and methods of treatment related to the use thereof” (TAISHO PHARMACEUTICAL CO., LTD., priority 2003, published 2005)
Read-outs that look alike come from different tables or passages of the source. Blank lines part the entries; values can stand above or below the compound they belong to.

Tested on: MCH receptors
Assay: MCH receptor activity class (method not given)
[1] = class by percent of control at 10^-7 M or IC50
[2] = MCH receptor, class by percent of control at 10^-7 M or IC50

Compound: CN(C)c1cc(N[C@H]2CC[C@@H](NC(=O)[C@H](CCCCNC(=O)c3ccccc3)NC(=O)c3ccccc3)CC2)nc2ccccc12 (relative stereo) [compound 704]
class [1]: 3 (Class 3 The value of percent of control at 10^−7 M was more than 60% or the value of IC50 was more than 200 nM.)

class: 2
Compound: Cc1cc(N[C@H]2CC[C@@H](NC(=O)Nc3ccc(OCc4ccccc4)cc3)CC2)nc2ccccc12 [Example 2558, N-[4-(benzyloxy)phenyl]-N′-{cis-4-[(4-methylquinolin-2-yl)amino]cyclohexyl}urea]

Compound: Cc1cccc(C)c1NC(=S)N[C@H]1CC[C@@H](Nc2cc(N(C)C)c3ccccc3n2)CC1 [compound 2171]
class [1]: 3 (Class 3 The value of percent of control at 10^−7 M was more than 60% or the value of IC50 was more than 200 nM.)

Compound: Cc1cnc(N[C@H]2CC[C@@H](NC(=O)c3ccccc3Br)CC2)nc1N(C)C [compound 2914]
class (class by percent of control at 10^−7 M or IC50): 3 (Class 3 The value of percent of control at 10^−7 M was more than 60% or the value of IC50 was more than 200 nM.)

Compound: Cc1ccc(C(=O)CC(C(=O)N[C@H]2CC[C@@H](Nc3nccc(N(C)C)n3)CC2)c2cn(C)c3ccccc23)cc1 (relative stereo) [compound 862, N-(cis-4-{[4-(dimethylamino)pyrimidin-2-yl]amino}cyclohexyl)-2-(1-methyl-1H-indol-3-yl)-4-(4-methylphenyl)-4-oxobutanamide]
class [1]: 1 (Class 1: The value of percent of control at 10^−7 M was less than 40% or the value of IC50 was less than 50 nM.)

Compound: CCc1cccc2c(C(CC(=O)c3ccc(C(C)(C)C)cc3)C(=O)N[C@H]3CC[C@@H](Nc4cc(N(C)C)c5ccccc5n4)CC3)c[nH]c12 (relative stereo) [compound 720]
class [1]: 3 (Class 3 The value of percent of control at 10^−7 M was more than 60% or the value of IC50 was more than 200 nM.)

Compound: COc1cccc(NC(=S)N[C@H]2CC[C@@H](Nc3nc4c(c(N(C)C)n3)CCCC4)CC2)c1 [compound 1986]
class [2]: 3 (Class 3 The value of percent of control at 10^−7 M was more than 60% or the value of IC50 was more than 200 nM.)

Compound: CN(C)c1ccnc(N[C@H]2CC[C@@H](NC(=O)CCCc3ccc([N+](=O)[O-])cc3)CC2)n1 [compound 864, N-(cis-4-{[4-(dimethylamino)pyrimidin-2-yl]amino}cyclohexyl)-4-(4-nitrophenyl)butanamide]
class [1]: 2 (Class 2: The value of percent of control at 10^−7 M was from 40% to 60% or the value of IC′50 was from 50 nM to 200 nM.)

Compound: Cc1cccc(Cl)c1NC(=O)NC[C@H]1CC[C@@H](Nc2nccc(N(C)C)n2)CC1 [compound 2420, N-(2-chloro-6-methylphenyl)-N′-[(cis-4-{[4-(dimethylamino)pyrimidin-2-yl]amino}cyclohexyl)methyl]urea]
class (MCH receptor activity class 1-3 (percent of control at 10^-7 M or IC50)): 1 (Class 1: The value of percent of control at 10^−7 M was less than 40% or the value of IC50 was less than 50 nM.)

Compound: CCSc1ncccc1C(=O)N[C@H]1CC[C@@H](Nc2nc3c(c(N(C)C)n2)CCCC3)CC1 [compound 472]
class (class 1-3 by percent of control at 10^-7 M or IC50): 3 (Class 3 The value of percent of control at 10^−7 M was more than 60% or the value of IC50 was more than 200 nM.)

Compound: CSc1cccc(NC(=O)N[C@H]2CC[C@@H](Nc3nc4c(c(N(C)C)n3)CCCC4)CC2)c1 [compound 1865]
class [1]: 3 (Class 3 The value of percent of control at 10^−7 M was more than 60% or the value of IC50 was more than 200 nM.)

Compound: CN(C)c1nc(N[C@H]2CC[C@@H](NC(=S)Nc3ccc(-c4cnco4)cc3)CC2)nc2c1CCCC2 [compound 2086]
class [1]: 3 (Class 3 The value of percent of control at 10^−7 M was more than 60% or the value of IC50 was more than 200 nM.)

Compound: CN(C)c1nc(N[C@H]2CC[C@@H](NC(=S)Nc3ccc(F)c(C(F)(F)F)c3)CC2)nc2c1CCCC2 [compound 1993]
class [2]: 3 (Class 3 The value of percent of control at 10^−7 M was more than 60% or the value of IC50 was more than 200 nM.)

Compound: CCOc1cccc(CN[C@H]2CC[C@@H](Nc3cc(N(C)C)c4ccccc4n3)CC2)c1 [compound 1452]
class [1]: 3 (Class 3 The value of percent of control at 10^−7 M was more than 60% or the value of IC50 was more than 200 nM.)
